Source: ChEMBL document CHEMBL1159130, “1,2,4-Triacylpiperidine substance p antagonists: Separation of affinities for the NK-1 receptor and the L-type calcium channel” (Bioorg Med Chem Lett, 1995)

What was measured:
[1] = biological target: Substance-P receptor (Homo sapiens, UniProt P25103); assay: Inhibition of [125I]-substance P binding to human neurokinin-1 (hNK-1) receptor in CHO cells; format: cell-based
[2] = Inhibition of [3H]diltiazem binding to L-type calcium channels of rabbit skeletal muscle; format: tissue-based, Oryctolagus cuniculus, Muscle tissue

Substance-P receptor, sequence (P25103 whole entry): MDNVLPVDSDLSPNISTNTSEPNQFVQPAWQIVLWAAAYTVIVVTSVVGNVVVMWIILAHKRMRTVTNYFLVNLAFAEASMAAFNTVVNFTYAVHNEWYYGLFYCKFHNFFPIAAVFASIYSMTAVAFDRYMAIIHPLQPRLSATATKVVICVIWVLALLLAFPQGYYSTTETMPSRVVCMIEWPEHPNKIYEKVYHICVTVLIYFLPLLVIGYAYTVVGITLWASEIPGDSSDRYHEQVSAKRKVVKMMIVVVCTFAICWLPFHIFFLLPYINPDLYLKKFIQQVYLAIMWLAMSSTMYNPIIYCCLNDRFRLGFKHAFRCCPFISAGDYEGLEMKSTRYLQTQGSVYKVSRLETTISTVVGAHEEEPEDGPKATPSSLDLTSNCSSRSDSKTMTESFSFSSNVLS

Row | Compound | IC50 [1] [nM] | IC50 [2] [nM]
1 | CCCCCN(CCCCC)C(=O)[C@@H]1CCN(C(=O)N(c2ccccc2)c2ccccc2)[C@H](C(=O)NCCN(C)Cc2ccccc2OC)C1 | 73 | 
2 | COc1ccccc1CN[C@H]1C2CCN(CC2)[C@H]1C(c1ccccc1)c1ccccc1 [CP-96345] |  | 240
3 | CCCCCN(CCCCC)C(=O)N1CCN(C(=O)N(c2ccccc2)c2cccc(Cl)c2)[C@H](C(=O)NCCCN(CC)CC)C1 | 8 | 
4 | CCCCCN(CCCCC)C(=O)[C@H]1CCN(C(=O)N(c2ccccc2)c2cccc(Cl)c2)[C@H](C(=O)NCCN(CC(N)=O)Cc2ccccc2OC)C1 | 3.8 | 16200
5 | CCCCCN(CCCCC)C(=O)[C@H]1CCN(C(=O)N(c2ccccc2)c2cccc(Cl)c2)[C@H](C(=O)O)C1 | 20 | > 5000
6 | CCCCCN(CCCCC)C(=O)[C@H]1CCN(C(=O)N(c2ccccc2)c2cccc(Cl)c2)[C@H](C(=O)NCCNCC(N)=O)C1 | 3.5 | 3700
7 | CCCCCN(CCCCC)C(=O)[C@H]1CCN(C(=O)N(c2ccccc2)c2ccccc2)[C@H](C(=O)NCCN(C)Cc2ccccc2OC)C1 | 1.8 | 200
8 | CCCCCN(CCCCC)C(=O)[C@H]1CCN(C(=O)N(c2ccccc2)c2ccccc2)[C@H](C(=O)NCCN(CC(N)=O)Cc2ccccc2OC)C1 | 1.8 | 5600
9 | CCCCCN(CCCCC)C(=O)[C@H]1CCN(C(=O)N(c2ccccc2)c2cccc(Cl)c2)[C@H](C(=O)NCCN(CC(N)=O)C(=O)OCc2ccccc2)C1 | 1.8 | > 5000
10 | CCCCCN(CCCCC)C(=O)[C@H]1CCN(C(=O)N(c2ccccc2)c2ccccc2)[C@H](C(=O)O)C1 | 33 | > 5000
11 | CCCCCN(CCCCC)C(=O)[C@H]1CCN(C(=O)N(c2ccccc2)c2ccccc2)[C@H](C(=O)NCCNCC(N)=O)C1 | 13 | 2700
12 | COC(=O)[C@H]1CCN(C(=O)N(c2ccccc2)c2ccccc2)[C@H](C(=O)NCCN(C)Cc2ccccc2OC)C1 | 250 | 470
13 | COc1ccccc1CN(C)CCNC(=O)[C@@H]1C[C@@H](C(=O)N(Cc2ccccc2)Cc2ccccc2)CCN1C(=O)N(c1ccccc1)c1cccc(Cl)c1 | 0.7 | 110
14 | CCCCCN(CCCCC)C(=O)[C@H]1CCN(C(=O)N(c2ccccc2)c2ccccc2)[C@H](C(=O)NCCCN(CC)CC)C1 | 5.5 | 820
15 | CCCCCN(CCCCC)C(=O)[C@H]1CCN(C(=O)N(c2ccccc2)c2cccc(Cl)c2)[C@H](C(=O)NCCN(C)Cc2ccccc2OC)C1 | 1.4 | 210
